# What was measured:
# PCSK9/LDLR PPI = PCSK9/LDLR PPI (Homo sapiens, UniProt Q8NBP7); test: PCSK9-LDLR TR-FRET assay (PCSK9/LDLR PPI inhibitory screening); format: binding; conditions: for inhibition at 10 µM: mean of three experiments, read-out: PCSK9 percentage inhibitory rate
# Experimental: The PCSK9/LDLR time-resolved fluorescence resonance energy transfer (TR-FRET) assay was performed to evaluate the activity of synthesised compounds in inhibition of PCSK9-LDLR binding. The A series compounds were firstly synthesised for the PCSK9/LDLR PPI inhibitory test. […] Therefore, a group of A12 derivatives (B series) were synthesised with 4-chlorobenzyl substituted in the amino group and various substitutions introduced to the carboxylic group. […] To confirm whether the 4-chloromethyl group is essential for the PPI inhibitory activity, a new series of compounds (C series) were synthesised with the 4-chloromethyl group replaced by 4-methoxymethyl moiety. The inhibitory activity was observed, most likely resulting from the 4-methoxymethyl substitution (Table 3).
# The compounds were dissolved in 100% DMSO; then 2 µL of the dilution was added to a 20 µL of reaction to keep […] in all of reactions. The binding reaction was conducted at room temperature. The reaction mixture in assay buffer contains PCSK9, the indicated amount of the inhibitor, ligand LDLR, and the reaction dyes. The reaction mixture was incubated for 120 min before detection of the TR-FRET signal. Fluorescence signals for both the donor and acceptor dyes were measured using a Tecan Infinite M1000 plate reader. TR-FRET was recorded as the ratio of the fluorescence of the acceptor and the donor dyes (acceptor/donor). The TR-FRET data were analysed using Graphpad Prism software.
# HepG2 cells = test: MTT assay on HepG2 cells; format: cell-based; conditions: Homo sapiens, mean of three experiments, read-out: HepG2 percentage inhibitory rate
# Chain of PCSK9/LDLR PPI (Q8NBP7 153-692): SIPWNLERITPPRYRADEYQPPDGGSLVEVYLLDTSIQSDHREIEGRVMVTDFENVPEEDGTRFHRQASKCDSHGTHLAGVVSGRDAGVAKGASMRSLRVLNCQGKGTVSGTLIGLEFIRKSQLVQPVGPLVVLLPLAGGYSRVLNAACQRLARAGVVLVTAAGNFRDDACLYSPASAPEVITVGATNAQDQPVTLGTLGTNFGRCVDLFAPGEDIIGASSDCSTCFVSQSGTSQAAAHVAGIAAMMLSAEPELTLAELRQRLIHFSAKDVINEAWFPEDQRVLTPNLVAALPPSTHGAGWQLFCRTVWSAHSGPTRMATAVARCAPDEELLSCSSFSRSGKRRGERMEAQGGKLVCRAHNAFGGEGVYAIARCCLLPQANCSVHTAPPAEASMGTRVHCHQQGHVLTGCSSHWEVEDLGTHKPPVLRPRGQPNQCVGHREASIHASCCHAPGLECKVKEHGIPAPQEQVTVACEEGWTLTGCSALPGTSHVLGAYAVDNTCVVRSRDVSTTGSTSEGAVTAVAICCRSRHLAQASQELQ
# Chain of PCSK9/LDLR PPI (Q8NBP7 31-152 partner limits assumed): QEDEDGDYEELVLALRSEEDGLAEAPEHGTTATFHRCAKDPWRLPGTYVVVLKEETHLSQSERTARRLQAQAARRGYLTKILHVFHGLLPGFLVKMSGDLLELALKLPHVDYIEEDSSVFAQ
Compound,inhibition at 10 µM (PCSK9/LDLR PPI) [%],"IC50 (PCSK9/LDLR PPI; dose-dependent IC50 plot, Figure 3, read-out: PCSK9 IC50 (inhibition of PCSK9/LDLR PPI)) [µM]",inhibition at 10 µM (HepG2 cells) [%]
"COc1cc(NC(=O)c2ccc(-c3cc4c(cc3NC(=O)c3ccc(F)cc3)OCO4)cc2)cc(OC)c1OC [A1, 4-Fluoro-N-(6-(4-((3,4,5-trimethoxyphenyl)carbamoyl)phenyl)benzo[d][1,3]dioxol-5-yl)benzamide]",27.2 ± 1.85,,12.5 ± 1.06
"COc1cc(NC(=O)c2ccc(-c3cc4c(cc3NC(=O)c3ccc(C(F)(F)F)cc3)OCO4)cc2)cc(OC)c1OC [A2, 4-(Trifluoromethyl)-N-(6-(4-((3,4,5-trimethoxyphenyl)carbamoyl)phenyl)benzo[d][1,3]dioxol-5-yl)benzamide]",23.1 ± 2.17,,16.4 ± 1.55
"COc1cc(NC(=O)c2ccc(-c3cc4c(cc3NC(=O)c3ccccc3)OCO4)cc2)cc(OC)c1OC [A3, 4-(6-Benzamidobenzo[d][1,3]dioxol-5-yl)-N-(3,4,5-trimethoxyphenyl)benzamide]",5.06 ± 0.09,,8.78 ± 0.37
"COc1cc(NC(=O)c2ccc(-c3cc4c(cc3NC(=O)c3ccccc3C(F)(F)F)OCO4)cc2)cc(OC)c1OC [A4, 2-(Trifluoromethyl)-N-(6-(4-((3,4,5-trimethoxyphenyl)carbamoyl)phenyl)benzo[d][1,3]dioxol-5-yl)benzamide]",5.28 ± 0.4,,7.93 ± 1.04
"COc1cc(NC(=O)c2ccc(-c3cc4c(cc3NC(=O)c3ccccc3F)OCO4)cc2)cc(OC)c1OC [A5, 2-Fluoro-N-(6-(4-((3,4,5-trimethoxyphenyl)carbamoyl)phenyl)benzo[d][1,3]dioxol-5-yl)benzamide]",4.77 ± 0.31,,5.96 ± 0.66
"COc1ccc(C(=O)Nc2cc3c(cc2-c2ccc(C(=O)Nc4cc(OC)c(OC)c(OC)c4)cc2)OCO3)cc1 [A6, 4-Methoxy-N-(6-(4-((3,4,5-trimethoxyphenyl)carbamoyl)phenyl)benzo[d][1,3]dioxol-5-yl)benzamide]",5.92 ± 0.52,,5.9 ± 0.42
"COc1cc(NC(=O)c2ccc(-c3cc4c(cc3NC(=O)c3ccccc3Cl)OCO4)cc2)cc(OC)c1OC [A7, 2-Chloro-N-(6-(4-((3,4,5-trimethoxyphenyl)carbamoyl)phenyl)benzo[d][1,3]dioxol-5-yl)benzamide]",5.16 ± 0.31,,12.4 ± 1.07
"COc1cc(NC(=O)c2ccc(-c3cc4c(cc3NC(=O)c3cccc(Br)c3)OCO4)cc2)cc(OC)c1OC [A8, 3-Bromo-N-(6-(4-((3,4,5-trimethoxyphenyl)carbamoyl)phenyl)benzo[d][1,3]dioxol-5-yl)benzamide]",5.88 ± 0.12,,3.66 ± 0.24
"COc1cc(NC(=O)c2ccc(-c3cc4c(cc3NC(=O)c3cccc(F)c3)OCO4)cc2)cc(OC)c1OC [A9, 3-Fluoro-N-(6-(4-((3,4,5-trimethoxyphenyl)carbamoyl)phenyl)benzo[d][1,3]dioxol-5-yl)benzamide]",22.5 ± 1.36,,11.7 ± 0.88
"COc1ccccc1C(=O)Nc1cc2c(cc1-c1ccc(C(=O)Nc3cc(OC)c(OC)c(OC)c3)cc1)OCO2 [A10, 2-Methoxy-N-(6-(4-((3,4,5-trimethoxyphenyl)carbamoyl)phenyl)benzo[d][1,3]dioxol-5-yl)benzamide]",3.05 ± 0.05,,4.27 ± 0.16
"COc1cc(NC(=O)c2ccc(-c3cc4c(cc3NC(=O)c3cccc(C(F)(F)F)c3)OCO4)cc2)cc(OC)c1OC [A11, 3-(Trifluoromethyl)-N-(6-(4-((3,4,5-trimethoxyphenyl)carbamoyl)phenyl)benzo[d][1,3]dioxol-5-yl)benzamide]",35.2 ± 3.15,,7.97 ± 0.08
"COc1cc(NC(=O)c2ccc(-c3cc4c(cc3NC(=O)c3ccccc3C)OCO4)cc2)cc(OC)c1OC [A13, 2-Methyl-N-(6-(4-((3,4,5-trimethoxyphenyl)carbamoyl)phenyl)benzo[d][1,3]dioxol-5-yl)benzamide]",7.65 ± 0.01,,5.89 ± 0.27
"CCc1ccc(C(=O)Nc2cc3c(cc2-c2ccc(C(=O)Nc4cc(OC)c(OC)c(OC)c4)cc2)OCO3)cc1 [A14, 4-Ethyl-N-(6-(4-((3,4,5-trimethoxyphenyl)carbamoyl)phenyl)benzo[d][1,3]dioxol-5-yl)benzamide]",7.83 ± 0.26,,5.21 ± 0.16
"COc1cc(NC(=O)c2ccc(-c3cc4c(cc3NC(=O)c3cc(F)cc(F)c3)OCO4)cc2)cc(OC)c1OC [A15, 3,5-Difluoro-N-(6-(4-((3,4,5-trimethoxyphenyl)carbamoyl)phenyl)benzo[d][1,3]dioxol-5-yl)benzamide]",4.76 ± 0.37,,4.63 ± 0.22
"COc1cc(NC(=O)c2ccc(-c3cc4c(cc3NC(=O)c3cc(F)ccc3F)OCO4)cc2)cc(OC)c1OC [A16, 2,5-Difluoro-N-(6-(4-((3,4,5-trimethoxyphenyl)carbamoyl)phenyl)benzo[d][1,3]dioxol-5-yl)benzamide]",4.22 ± 0.25,,3.33 ± 0.23
"COc1cc(NC(=O)c2ccc(-c3cc4c(cc3NC(=O)c3ccc(C#N)cc3)OCO4)cc2)cc(OC)c1OC [A17, 4-Cyano-N-(6-(4-((3,4,5-trimethoxyphenyl)carbamoyl)phenyl)benzo[d][1,3]dioxol-5-yl)benzamide]",7.91 ± 0.71,,3.84 ± 0.11

# Continued, in another order:
inhibition at 10 µM (PCSK9/LDLR PPI) [%],"IC50 (PCSK9/LDLR PPI; dose-dependent IC50 plot, Figure 3, read-out: PCSK9 IC50 (inhibition of PCSK9/LDLR PPI)) [µM]",Compound,inhibition at 10 µM (HepG2 cells) [%]
25.5 ± 2.22,,"O=C(Nc1ccc(Br)cc1)c1ccc(-c2cc3c(cc2NC(=O)c2ccc(CCl)cc2)OCO3)cc1 [B2, N-(4-bromophenyl)-4-(6-(4-(chloromethyl)benzamido)benzo[d][1,3]dioxol-5-yl)benzamide]",15.6 ± 1.24
6.18 ± 0.08,,"COc1ccc(NC(=O)c2ccc(-c3cc4c(cc3NC(=O)c3ccc(CCl)cc3)OCO4)cc2)cc1 [B5, 4-(Chloromethyl)-N-(6-(4-((4-methoxyphenyl)carbamoyl)phenyl)benzo[d][1,3]dioxol-5-yl)benzamide]",7.22 ± 0.15
6.97 ± 0.43,,"CCOc1ccc(NC(=O)c2ccc(-c3cc4c(cc3NC(=O)c3ccc(CCl)cc3)OCO4)cc2)cc1 [B6, 4-(Chloromethyl)-N-(6-(4-((4-ethoxyphenyl)carbamoyl)phenyl)benzo[d][1,3]dioxol-5-yl)benzamide]",7.04 ± 0.27
16.3 ± 0.62,,"COc1ccc(NC(=O)c2ccc(-c3cc4c(cc3NC(=O)c3ccc(CCl)cc3)OCO4)cc2)cc1OC [B7, 4-(Chloromethyl)-N-(6-(4-((3,4-dimethoxyphenyl)carbamoyl)phenyl)benzo[d][1,3]dioxol-5-yl)benzamide]",5.45 ± 0.39
3.15 ± 0.02,,"Cc1ccc(NC(=O)c2ccc(-c3cc4c(cc3NC(=O)c3ccc(CCl)cc3)OCO4)cc2)cc1 [B8, 4-(Chloromethyl)-N-(6-(4-(p-tolylcarbamoyl)phenyl)benzo[d][1,3]dioxol-5-yl)benzamide]",3.35 ± 0.16
3.36 ± 0.23,,"CCc1ccc(NC(=O)c2ccc(-c3cc4c(cc3NC(=O)c3ccc(CCl)cc3)OCO4)cc2)cc1 [B9, 4-(Chloromethyl)-N-(6-(4-((4-ethylphenyl)carbamoyl)phenyl)benzo[d][1,3]dioxol-5-yl)benzamide]",6.36 ± 0.42
5.87 ± 0.01,,"CCCCCc1ccc(NC(=O)c2ccc(-c3cc4c(cc3NC(=O)c3ccc(CCl)cc3)OCO4)cc2)cc1 [B10, 4-(Chloromethyl)-N-(6-(4-((4-pentylphenyl)carbamoyl)phenyl)benzo[d][1,3]dioxol-5-yl)benzamide]",2.4 ± 0.19
6.92 ± 0.53,,"O=C(Nc1ccc(-c2ccccc2)cc1)c1ccc(-c2cc3c(cc2NC(=O)c2ccc(CCl)cc2)OCO3)cc1 [B11, N-([1,1′-biphenyl]-4-yl)-4-(6-(4-(chloromethyl)benzamido)benzo[d][1,3]dioxol-5-yl)benzamide]",3.26 ± 0.22
5.16 ± 0.2,,"O=C(Nc1ccc2c(c1)OCCO2)c1ccc(-c2cc3c(cc2NC(=O)c2ccc(CCl)cc2)OCO3)cc1 [B12, 4-(Chloromethyl)-N-(6-(4-((2,3-dihydrobenzo[b][1,4]dioxin-6-yl)carbamoyl)phenyl)benzo[d][1,3]dioxol-5-yl)benzamide]",5.76 ± 0.24
5.64 ± 0.04,,"O=C(Nc1cc2c(cc1-c1ccc(C(=O)N3CCN(c4ccccc4)CC3)cc1)OCO2)c1ccc(CCl)cc1 [B13, 4-(Chloromethyl)-N-(6-(4-(4-phenylpiperazine-1-carbonyl)phenyl)benzo[d][1,3]dioxol-5-yl)benzamide]",3.21 ± 0.26
7.22 ± 0.71,,"CCc1ccc(N2CCN(C(=O)c3ccc(-c4cc5c(cc4NC(=O)c4ccc(CCl)cc4)OCO5)cc3)CC2)cc1 [B15, 4-(Chloromethyl)-N-(6-(4-(4-(4-ethylphenyl)piperazine-1-carbonyl)phenyl)benzo[d][1,3]dioxol-5-yl)benzamide]",8.91 ± 0.62
7.94 ± 0.03,,"O=C(Nc1cc2c(cc1-c1ccc(C(=O)N3CCN(c4ccc(Cl)cc4)CC3)cc1)OCO2)c1ccc(CCl)cc1 [B16, 4-(Chloromethyl)-N-(6-(4-(4-(4-chlorophenyl)piperazine-1-carbonyl)phenyl)benzo[d][1,3]dioxol-5-yl)benzamide]",10.2 ± 0.91
,12.9,"O=C(Nc1cccc(-c2nc3ccccc3o2)c1)c1ccc(NC(=O)c2cc3ccccc3o2)cc1 [SBC-115337, reference compound]",

# — paper PMC9307114, “Discovery and SAR analysis of phenylbenzo[d][1,3]dioxole-based proprotein convertase subtilisin/kexin type 9 inhibitors” (Journal of Enzyme Inhibition and Medicinal Chemistry, 2022)
